According to patent US6358967B1, “Ergoline amine derivatives with blood pressure lowering effect” (priority 1998, dated 2002):

Tests used:
normotensive Wistar rats = assay: Invasive blood pressure measurement in anesthetized rats, i.v. administration; format: in vivo, rat
Method: Male Wistar rats with a body weight (BW) of 300-450 g were used as experimental animals. The rats are anesthetized immediately before the experiment with 50 mg/kg pentobarbital Na intraperitoneally (i.p.) or 70 mg/kg inactin i.v. PE tubes are tied into the carotid artery and femoral vein.
(§1) To maintain the blood pressure and to prevent formation of thrombi in the PE tubes of the blood vessels, each hour 2.5 ml of heparinized 0.9% strength NaCl solution are infused through the femoral vein and 1.2 ml through the carotid artery.
The arterial blood pressure is measured invasively using a PONEMAH hemodynamic analyzer (HSE, March, Germany). Via the tube in the carotid artery, the arterial blood pressure is mechanoelectrically converted in a Statham transducer (ISOTEC), amplified in a Plugsys (DBA module, type 660), digitized in an A/D converter and input into the PC memory over defined time intervals. The values in the memory are then treated with an adapted algorithm in order to establish the blood pressure parameters to be calculated for heart rate, systolic, diastolic and mean blood pressure.
(§2) The ergoline derivatives are administered i.v. through the femoral vein as 5 percent EtOH/NaCl (0.9%) solution, 1 ml/kg in a dosage of 0.5 mg/kg test substance.

[1] = test system: normotensive Wistar rats after pretreatment with Ecolid; assay: Blood pressure testing after blockade of autonomic nerve tracts with Ecolid; format: in vivo, rat; conditions: Table 2
Text: Ecolid is a ganglionic blocker which competitively blocks the postsynaptic cholinergic (nicotinergic) receptors in the autonomic ganglia. This interrupts neurotransmission in the ganglia in both the para-sympathetic and sympathetic regions of the autonomic nervous system. The consequence thereof is, inter alia, a fall in blood pressure. It is possible in this way to differentiate central and peripheral (i.e. direct points of action on the smooth muscles) effects.
The experimental animals used were male Wistar rats with a BW of 300-450 g. The rats are anesthetized immediately before the experiment with 70 mg/kg inactin i.v. PE tubes are tied into the carotid artery and femoral vein.
as §1
Before testing the ergoline derivatives, the experimental animals were treated with Ecolid (dose: 0.5 mg/kg, i.v.).
as §2
The time stated in the table corresponds to the period between administration of Ecolid and injection of the test substances.

[2] = assessment class of duration, 0.5 mg/kg i.v., Table 1.1
[3] = assessment class of pressure fall, 0.5 mg/kg i.v., Table 1.1
[4] = change shown as arrow, Wistar rats, 0.5 mg/kg i.v., Table 1.1
[5] = duration of blood pressure effect, Wistar rats, 0.5 mg/kg i.v., Table 1.1
[6] = effect (fall) on arterial blood pressure, anesthetized Wistar rats, 0.5 mg/kg i.v., Table 1.1
[7] = assessment class of duration, 0.5 mg/kg i.v., Table 1.2
[8] = assessment class of pressure fall, 0.5 mg/kg i.v., Table 1.2
[9] = change shown as arrow, Wistar rats, 0.5 mg/kg i.v., Table 1.2
[10] = duration of blood pressure effect, 0.5 mg/kg i.v., Table 1.2
[11] = effect (fall) on arterial blood pressure, Wistar rats, 0.5 mg/kg i.v., Table 1.2
[12] = effect (fall) on arterial blood pressure, Wistar rats pretreated with Ecolid 0.5 mg/kg i.v., test substance 0.5 mg/kg i.v.

## CN1CC(CNC(=O)c2ccc(C(=O)NCC3CCCC(CN)C3)cc2)CC2c3cccc4[nH]cc(c34)CC21.O=C(O)C(F)(F)F.O=C(O)C(F)(F)F (mixture of isomers) [Substance 9703127]
Normotensive Wistar rats; [2]
  Effect pressure/duration: duration: ↓↓/↓↓ (up to 30 min)
Normotensive Wistar rats; [3]
  Effect pressure/duration: pressure: ↓↓/↓↓ (to 30%)
Normotensive Wistar rats; [4]
  Heart rate: →
Normotensive Wistar rats; [5]
  Duration: >25 min
Normotensive Wistar rats; [6]
  Diastol. pressure: 29.0%
  Mean pressure: 27.2%
  Systol. pressure: 24.8%

## CN1CC(CNC(=O)CCCCC(=O)NC2CCC(N)CC2)CC2c3cccc4[nH]cc(c34)CC21.O=C(O)C(F)(F)F.O=C(O)C(F)(F)F (centres unmarked) [Substance 9703114]
Normotensive Wistar rats; rat, in vivo, iv, 0.5 mg/kg
  Diastol. pressure: 20.7%
  Duration: 40 min
  Effect pressure/duration: duration: ↓↓/↓↓↓ (key: (↓): < 5 min; ↓: up to 10 min; ↓↓: up to 30 min; ↓↓↓: >30 min)
  Effect pressure/duration: pressure: ↓↓/↓↓↓ (key: →: no effect to 5%; (↓): to 10%; ↓: to 20%; ↓↓: to 30%; ↓↓↓: >30%)
  Heart rate: →
  Mean pressure: 20.3%
  Systol. pressure: 18.8%

## CN1CC(CNC(=O)CCCCC(=O)NCc2cccc(CN)c2)CC2c3cccc4[nH]cc(c34)CC21.O=C(O)C(F)(F)F.O=C(O)C(F)(F)F (centres unmarked) [Substance 9703123]
Normotensive Wistar rats; rat, in vivo, iv, 0.5 mg/kg
  Diastol. pressure: 44.3%
  Duration: 7 min
  Effect pressure/duration: duration: ↓↓↓/↓ (key: (↓): < 5 min; ↓: up to 10 min; ↓↓: up to 30 min; ↓↓↓: >30 min)
  Effect pressure/duration: pressure: ↓↓↓/↓ (key: →: no effect to 5%; (↓): to 10%; ↓: to 20%; ↓↓: to 30%; ↓↓↓: >30%)
  Heart rate: →
  Mean pressure: 43.4%
  Systol. pressure: 38.0%

## CN1C[C@H](C(N)=O)CC2c3cccc4[nH]cc(c34)C[C@H]21 (some centres unmarked) [Dihydrolysergamide, reference compound]
Normotensive Wistar rats; [2]
  Effect pressure/duration: duration: (↓)/(↓) (< 5 min)
Normotensive Wistar rats; [3]
  Effect pressure/duration: pressure: (↓)/(↓) (to 10%)
Normotensive Wistar rats; [4]
  Heart rate: →
Normotensive Wistar rats; [5]
  Duration: 5 min
Normotensive Wistar rats; [6]
  Diastol. pressure: 7.1%
  Mean pressure: 8.0%
  Systol. pressure: 8.0%

## CN1CC(CNC(=O)C(F)(F)C(F)(F)C(=O)NC2CCC(N)CC2)CC2c3cccc4[nH]cc(c34)CC21.O=C(O)C(F)(F)F.O=C(O)C(F)(F)F (centres unmarked) [Substance 9703157]
Normotensive Wistar rats; [7]
  Effect pressure/duration: duration: ↓↓ (up to 30 min)
Normotensive Wistar rats; [8]
  Effect pressure/duration: pressure: ↓↓↓ (> 30%)
Normotensive Wistar rats; [9]
  Heart rate: →
Normotensive Wistar rats; [10]
  Duration: 30 min
Normotensive Wistar rats; [11]
  Diastol. pressure: 49.6%
  Mean pressure: 48.8%
  Systol. pressure: 46.6%

## CN1CC(CNC(=O)c2c(F)c(F)c(F)c(F)c2C(=O)NC2CCC(N)CC2)CC2c3cccc4[nH]cc(c34)CC21.O=C(O)C(F)(F)F.O=C(O)C(F)(F)F (centres unmarked) [Substance 9703156]
Normotensive Wistar rats; [7]
  Effect pressure/duration: duration: ↓↓ (up to 30 min)
Normotensive Wistar rats; [8]
  Effect pressure/duration: pressure: ↓↓↓ (> 30%)
Normotensive Wistar rats; [9]
  Heart rate: →
Normotensive Wistar rats; [10]
  Duration: 13 min
Normotensive Wistar rats; [11]
  Diastol. pressure: 43.4%
  Mean pressure: 38.6%
  Systol. pressure: 33.4%

## CN1C[C@H](CN)C[C@@H]2c3cccc4[nH]cc(c34)C[C@H]21 [8β-Aminomethyl-6-methylergoline, reference compound]
Normotensive Wistar rats; [2]
  Effect pressure/duration: duration: ↓↓ (up to 30 min)
Normotensive Wistar rats; [3]
  Effect pressure/duration: pressure: ↓ (to 20%)
Normotensive Wistar rats; [4]
  Heart rate: →
Normotensive Wistar rats; [5]
  Duration: 30 min
Normotensive Wistar rats; [6]
  Diastol. pressure: 14.3%
  Mean pressure: 15.3%
  Systol. pressure: 16.4%

## Cc1nc(C)c(C(=O)NC2CCC(N)CC2)cc1C(=O)NCC1CC2c3cccc4[nH]cc(c34)CC2N(C)C1.O=C(O)C(F)(F)F.O=C(O)C(F)(F)F (centres unmarked) [Substance 9703137]
Normotensive Wistar rats; [2]
  Effect pressure/duration: duration: ↓↓↓/↓↓↓ (>30 min)
Normotensive Wistar rats; [3]
  Effect pressure/duration: pressure: ↓↓↓/↓↓↓ (>30%)
Normotensive Wistar rats; [4]
  Heart rate: →
Normotensive Wistar rats; [5]
  Duration: ca 95 min
Normotensive Wistar rats; [6]
  Diastol. pressure: 64.8%
  Mean pressure: 60.2%
  Systol. pressure: 56.5%

## C[N+](C)(C)CC[N+]1(C)Cc2c(Cl)c(Cl)c(Cl)c(Cl)c2C1.[Cl-].[Cl-] [Ecolid, reference compound]
[1]; assessment class of duration, after Ecolid, 0.5 mg/kg i.v.
  Effect pressure/duration: duration: ↓↓↓/↓↓↓ (> 30 min)
[1]; assessment class of pressure fall, after Ecolid, 0.5 mg/kg i.v.
  Effect pressure/duration: pressure: ↓↓↓/↓↓↓ (> 30%)
[1]; change shown as arrow, rats pretreated with Ecolid, 0.5 mg/kg i.v.
  Heart rate: →
[1]; [12]
  Diastol. pressure: 54.7%
  Mean pressure: 50.4%
  Systol. pressure: 52.6%
